Laboratory results taken from ChEMBL document CHEMBL1145363, “Discovery of 6-ethyl-2,4-diaminopyrimidine-based small molecule renin inhibitors” (Bioorg Med Chem Lett, 2007).
Converted amounts (≈) assume the structure as drawn.

Tests used:
Renin = target: T1, Renin (Homo sapiens, UniProt P00797); experiment: Inhibition of renin
T1 sequence (P00797 whole entry): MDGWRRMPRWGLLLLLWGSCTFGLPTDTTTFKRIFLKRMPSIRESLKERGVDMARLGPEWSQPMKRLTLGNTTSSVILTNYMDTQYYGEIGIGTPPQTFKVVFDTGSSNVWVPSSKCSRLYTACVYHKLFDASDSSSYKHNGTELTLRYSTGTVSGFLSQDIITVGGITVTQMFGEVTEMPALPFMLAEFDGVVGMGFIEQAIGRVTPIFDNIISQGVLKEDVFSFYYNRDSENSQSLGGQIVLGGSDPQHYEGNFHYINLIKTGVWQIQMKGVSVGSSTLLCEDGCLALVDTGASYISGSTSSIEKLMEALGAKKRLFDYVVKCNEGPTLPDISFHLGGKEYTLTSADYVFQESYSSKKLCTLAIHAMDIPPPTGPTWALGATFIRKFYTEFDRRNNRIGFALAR

[1] = target: T2, Cathepsin E (Homo sapiens) (UniProt P14091); experiment: Inhibition of cathepsin E at 100 uM
T2 sequence (whole entry): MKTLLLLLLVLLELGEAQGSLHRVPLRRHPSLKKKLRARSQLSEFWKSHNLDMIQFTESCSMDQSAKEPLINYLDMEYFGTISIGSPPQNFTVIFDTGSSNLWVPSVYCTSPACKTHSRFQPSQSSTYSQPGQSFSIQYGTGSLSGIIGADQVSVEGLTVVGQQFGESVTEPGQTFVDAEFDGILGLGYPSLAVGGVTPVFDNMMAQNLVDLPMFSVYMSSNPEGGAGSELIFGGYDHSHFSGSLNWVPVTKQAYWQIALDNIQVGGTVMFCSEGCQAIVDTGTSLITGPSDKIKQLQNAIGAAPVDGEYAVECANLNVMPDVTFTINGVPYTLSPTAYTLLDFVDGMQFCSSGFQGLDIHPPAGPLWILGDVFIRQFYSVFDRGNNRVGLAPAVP

[2] = Half life in human liver microsome; type: ADME; conditions: liver microsomes
Homo sapiens = species on record: Homo sapiens; experiment: Inhibition of pepsin at 100 uM
[3] = target: Cathepsin D (Homo sapiens) (UniProt P07339); experiment: Inhibition of cathepsin D at 100 uM
Sequence of Cathepsin D (Homo sapiens) (P07339 65-162 limits assumed): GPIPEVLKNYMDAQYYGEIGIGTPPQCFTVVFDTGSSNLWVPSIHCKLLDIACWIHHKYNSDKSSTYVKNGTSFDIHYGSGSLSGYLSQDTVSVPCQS
Sequence of Cathepsin D (Homo sapiens) (P07339 169-412 limits assumed): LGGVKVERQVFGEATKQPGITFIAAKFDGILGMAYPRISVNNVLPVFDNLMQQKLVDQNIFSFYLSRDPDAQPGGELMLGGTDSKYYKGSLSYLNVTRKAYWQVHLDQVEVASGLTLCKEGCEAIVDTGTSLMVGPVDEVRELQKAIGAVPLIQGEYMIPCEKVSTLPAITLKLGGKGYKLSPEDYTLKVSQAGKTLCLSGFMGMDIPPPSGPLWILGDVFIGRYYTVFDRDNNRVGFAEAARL

[4] = Volume of distribution in Sprague-Dawley rat; type: ADME, organism-based; conditions: in vivo, read-out: Vdss
[5] = Plasma clearance in Sprague-Dawley rat; type: ADME, organism-based
[6] = Elimination half life in Sprague-Dawley rat; type: ADME, organism-based; conditions: in vivo
Cytochrome P450 3A4 = Cytochrome P450 3A4 (Homo sapiens, UniProt P08684); experiment: Inhibition of CYP3A4; type: ADME
Sequence of Cytochrome P450 3A4 (P08684 whole entry): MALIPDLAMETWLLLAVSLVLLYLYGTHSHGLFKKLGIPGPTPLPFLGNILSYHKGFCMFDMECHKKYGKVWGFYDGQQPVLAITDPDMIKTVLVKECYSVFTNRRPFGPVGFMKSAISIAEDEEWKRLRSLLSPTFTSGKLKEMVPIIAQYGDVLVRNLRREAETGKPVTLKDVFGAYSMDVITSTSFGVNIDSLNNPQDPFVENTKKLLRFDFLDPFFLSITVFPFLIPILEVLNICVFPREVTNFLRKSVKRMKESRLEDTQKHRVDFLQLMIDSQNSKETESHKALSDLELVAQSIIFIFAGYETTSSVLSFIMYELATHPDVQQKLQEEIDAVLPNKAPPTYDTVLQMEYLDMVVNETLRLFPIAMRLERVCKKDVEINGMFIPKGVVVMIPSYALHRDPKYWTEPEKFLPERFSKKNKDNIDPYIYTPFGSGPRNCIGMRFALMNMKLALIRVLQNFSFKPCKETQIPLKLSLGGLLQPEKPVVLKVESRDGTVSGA

[7] = Solubility of the compound; type: physicochemical
[8] = Oral bioavailability in Sprague-Dawley rat; type: ADME, organism-based; conditions: in vivo

IC50 (Renin) [nM]	inhibition [1] [%]	half-life [2] [min]	inhibition (Homo sapiens) [%]	inhibition [3] [%]	Vd [4] [L/kg]	clearance [5] [mL/min/kg]	half-life [6] [min]	IC50 (Cytochrome P450 3A4) [µM]	solubility [7] [µg/mL]	bioavailability [8] [%]	SMILES
120	0	5	0	0	–	–	–	–	–	–	CCc1nc(N)nc(N)c1-c1ccc2c(c1)N(CCCC(=O)OC)CCC2
91	0	5	0	0	–	–	–	12	–	–	CCc1nc(N)nc(N)c1-c1ccc2c(c1)N(CCCCC(=O)OC)CCC2
198	0	5	0	0	–	–	–	10	–	–	CCc1nc(N)nc(N)c1-c1ccc2c(c1)N(CCC(=O)OC)CCC2

Further lines, the compound ahead of its results:

SMILES	IC50 (Renin) [nM]	inhibition [1] [%]	half-life [2] [min]	inhibition (Homo sapiens) [%]	inhibition [3] [%]	Vd [4] [L/kg]	clearance [5] [mL/min/kg]	half-life [6] [min]	IC50 (Cytochrome P450 3A4) [µM]	solubility [7] [µg/mL]	bioavailability [8] [%]
COC[C@@H](O)CO[C@@H]1CNC[C@H](OCc2cc(OC)c3ccccc3c2)[C@H]1c1ccc(OCCCOCc2ccccc2OC)cc1	0.067	–	–	–	–	–	–	–	–	–	–
COc1ccccc1COCCCOc1ccc(N2C(=O)CNC[C@@H]2COc2ccc3c(c2)N(CCNC(C)=O)CCC3)cc1	0.5	–	–	–	–	–	–	–	–	–	–
CCc1nc(N)nc(N)c1-c1ccc(NCc2ccc(Cl)c(Cl)c2)cc1	27000	–	–	–	–	–	–	–	–	–	–
CCc1nc(N)nc(N)c1-c1ccc2c(c1)N(CCCOC)CCC2	650	0	–	0	0	1.6	36.8	66.6	2.8	59.3 (≈ 174 µM)	< 10
CCc1nc(N)nc(N)c1-c1ccc(NCc2cc(F)cc(F)c2)cc1	4000	–	–	–	–	–	–	–	–	–	–
CCc1nc(N)nc(N)c1-c1ccc2c(c1)N(CCNC(C)=O)CCC2	178	0	–	0	0	–	–	–	8	–	–
